Source: patent publication US12552846B2, “Modified BCL9 mimetic peptides” (Sapience Therapeutics, Inc., priority 2019, dated 2026)

System: MCF-7 breast cancer cells
Assay: MTT cell viability / anti-proliferative assay in MCF-7 cells
Assay type: cell-based
Conditions: MCF7 cells, compared to peptide ST-BC1
Protocol: MCF-7 breast cancer cells set at a density of 2.5×10^4 cells/well in 150 μL of MEM medium+10% fetal bovine serum (FBS) in a 96 well dish. Lyophilized BCL9 peptides were reconstituted at a concentration of 10 mg/mL in 270 mM trehalose buffer and added to each well at a volume of 50 μL to a final concentration range of 2.5-40 μM. Cells were incubated with BCL9 peptides for 96 hours at 37° C.
Cell viability was quantified by spectrophotometry using Roche MTT cell proliferation assay kit according to manufacturer's instructions. Briefly, cells were washed with PBS, and incubated in fresh MEM medium with 10% FBS, 1% penicillin/streptomycin, and 1% non-essential amino acids, plus 10 μL MTT reagent at 37° C. for 4 hours. After 4 hours, 100 μL of solubilization solution was added, and cells were incubated overnight at 37° C. and 5% carbon dioxide. Absorbance was measured at OD570 nm with a reference of OD650 nm. The degree of absorption is proportional to the number of living cells. Percentage of absorbance relative to untreated controls was quantified and presented as % Cell Viability.
In functional assays, EC50 is the concentration that reduces a biological response by 50% of its maximum. In the case of BLC9 peptides, EC50 is measured as the concentration that reduces cell viability by 50% of its maximum. EC50 can be calculated by any number of means known in the art.

## YGRKKRRQRRRLSQEQLEHRERSLQTLRDIQRMLF [BCL-21, TAT cell-penetrating region plus native BCL9 HD2 domain]
  anti-proliferative activity: inefficient at inhibiting cell proliferation
